Source: patent US20230382894A1, “CCR4 ANTAGONISTS” (CHEMOCENTRYX, INC., priority 2022, published 2023)
pIC50: −log10 of the molar value.

molecular target: T1, CCR4 (Homo sapiens, UniProt P51679); test: CEM cell chemotaxis (migration) assay to CCL22 (MDC) in 100% Fetal Bovine Serum (FBS); type: cell-based; settings: CEM cells in 100% FBS with 1% HEPEs; recombinant human CCL22 0.1 nM; 37° C. 60 minutes
T1 construct: CEM Cells Endogenous Express CCR4; endogenous in cells; host or cells: CEM cells
T1 sequence (P51679 1-360): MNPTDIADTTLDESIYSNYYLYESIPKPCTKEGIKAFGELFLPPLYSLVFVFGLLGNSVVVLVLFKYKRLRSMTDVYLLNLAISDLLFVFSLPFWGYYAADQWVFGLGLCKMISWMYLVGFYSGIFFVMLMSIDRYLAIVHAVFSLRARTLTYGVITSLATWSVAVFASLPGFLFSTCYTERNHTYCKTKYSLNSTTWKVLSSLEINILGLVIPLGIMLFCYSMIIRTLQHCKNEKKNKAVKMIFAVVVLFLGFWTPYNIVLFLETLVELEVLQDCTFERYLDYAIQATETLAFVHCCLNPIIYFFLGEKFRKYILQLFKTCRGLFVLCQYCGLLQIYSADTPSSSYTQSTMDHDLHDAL
Text: CEM Cells Endogenous Express CCR4
A chemotaxis assay can be used to determine the efficacy of potential receptor antagonists at blocking the migration mediated through chemokine receptors, such as CCR4. This assay is routinely performed using the ChemoTX® microchamber system with a 5 μm pore-sized polycarbonate membrane.
FBS: CEM Cells are collected by centrifugation at 400×g at room temperature, then suspended at 5 million/ml in 100% Fetal Bovine Serum (FBS) with 1% HEPEs. The compound being tested is serially diluted from a maximum final concentration of 10 μM (or an equivalent volume of its solvent (DMSO)) and is then added to the cell/buffer mixture. Separately, recombinant human CCL22 (MDC) at its EC50 concentration (0.1 nM) is placed in the lower wells of the ChemoTX® plate. The 5-μm (pore size) polycarbonate membrane was placed onto the plate, and 20 μL of the cell/compound mixture is transferred onto each well of the membrane. The plates are incubated at 37° C. for 60 minutes, after which the polycarbonate membranes are removed and 5 μl of the DNA-intercalating dye CyQUANT (Invitrogen, Carlsbad, CA) is added to the lower wells. The amount of fluorescence, corresponding to the number of migrated cells, is measured using a Spectrafluor Plus plate reader (TECAN, San Jose, CA).

pIC50, 6.00 to 7.00:
C[C@@H](Nc1nc(N2CCN(C(=O)[C@@H]3CCC(=O)N3)CC2)ncc1Cl)c1ccc(Cl)cc1Cl [Example 1.144], C[C@@H](Nc1nc(N2CCN(C(=O)[C@H]3CC(F)(F)CN3)CC2)ncc1Cl)c1ccc(Cl)cc1Cl [Example 1.146], C[C@@H](Nc1nc(N2CCN(C(=O)[C@H]3CCN(C)C3)CC2)ncc1C(C)(C)O)c1ccc(Cl)cc1Cl [Example 1.154], C[C@@H](Nc1nc(N2CCN(C(=O)CCN3CCCC3=O)CC2)ncc1Cl)c1ccc(Cl)cc1Cl [Example 1.191], C[C@@H](Nc1nc(N2CC[C@H](N(C)C(=O)[C@H]3CCCN3)[C@@H](O)C2)ncc1Cl)c1ccc(Cl)cc1Cl [Example 1.194], C[C@@H](Nc1nc(N2CCN(C(=O)[C@H]3CC4(CC4)C(=O)N3)CC2)ncc1Cl)c1ccc(Cl)cc1Cl [Example 1.195], C[C@@H](Nc1nc(N2CCN(C(=O)CCN3CCOCC3)CC2)ncc1Cl)c1ccc(Cl)cc1Cl [Example 1.196], C[C@@H](Nc1nc(N2CCC(OC3CNC3)CC2)ncc1Cl)c1ccc(Cl)cc1Cl [Example 1.199], C[C@@H](Nc1nc(N2CC[C@H](NC(=O)CN(C)C)[C@@H](O)C2)ncc1Cl)c1ccc(Cl)cc1Cl [Example 1.203], C[C@@H](Nc1nc(N2CCN(C(=O)C3(N)CCOCC3)CC2)ncc1Cl)c1ccc(Cl)cc1Cl [Example 1.205]

pIC50, < 6.00:
C[C@@H](Nc1nc(N2CCC(N(CCC(=O)O)C(=O)[C@H]3CCCN3)CC2)ncc1Cl)c1ccc(Cl)cc1Cl [Example 1.141], C[C@@H](Nc1nc(C2CCN(C(=O)[C@H]3CCC(=O)N3)CC2)ncc1Cl)c1ccc(Cl)cc1Cl [Example 1.160]

pIC50, > 7.00:
C[C@@H](Nc1nc(N2CCN(C(=O)[C@H]3C[C@H](F)CN3)CC2)ncc1Cl)c1ccc(Cl)cc1Cl [Example 1.142], C[C@@H](Nc1nc(N2CCN(C(=O)[C@H]3CCN(C)C3)CC2)ncc1Cl)c1ccc(Cl)cc1Cl [Example 1.143], C[C@@H](Nc1nc(N2CCN(C(=O)[C@@H]3CNCCO3)CC2)ncc1Cl)c1ccc(Cl)cc1Cl [Example 1.145], C[C@@H](Nc1nc(N2CCN(C(=O)C3CNC(=O)C3)CC2)ncc1Cl)c1ccc(Cl)cc1Cl (some centres unmarked) [Example 1.147], C[C@@H](Nc1nc(N2CC[C@H](NC(=O)[C@H]3CCCN3)[C@@H](O)C2)ncc1OC(F)F)c1ccc(Cl)cc1Cl [Example 1.155], COc1cnc(N2CCN(C(=O)[C@H]3CCCN3C)CC2)nc1N[C@H](C)c1ccc(Cl)cc1Cl [Example 1.156], C[C@@H](Nc1nc(N2CCN(C(=O)[C@H]3CCCN3)CC2)ncc1F)c1ccc(Cl)cc1Cl [Example 1.157], COc1cnc(N2CCC(C3CCCN(CCO)C3)CC2)nc1N[C@H](C)c1ccc(Cl)cc1Cl (some centres unmarked) [Example 1.158], C[C@@H](Nc1nc(C2CCN(C(=O)[C@H]3CCCN3)CC2)ncc1Cl)c1ccc(Cl)cc1Cl [Example 1.159], CC(C)Oc1cnc(N2CCN(C(=O)C[C@@H]3CCCN3)CC2)nc1N[C@H](C)c1ccc(Cl)cc1Cl [Example 1.161], C[C@@H](Nc1nc(C2=CCN(C(=O)[C@H]3CCC(=O)N3)CC2)ncc1Cl)c1ccc(Cl)cc1Cl [Example 1.162], COc1cnc(N2CCN(C(=O)C[C@H]3CCCN3)CC2)nc1N[C@H](C)c1ccc(Cl)cc1Cl [Example 1.164], COc1cnc(N2CCN(C(=O)C3CCN(C)CC3)CC2)nc1N[C@H](C)c1ccc(Cl)cc1Cl [Example 1.165], C[C@@H](Nc1nc(N2CCN(C(=O)C[C@H]3CCCN3)CC2)ncc1OC(F)F)c1ccc(Cl)cc1Cl [Example 1.166], C[C@@H](Nc1nc(N2CCN(C(=O)[C@H]3CCCN3)CC2)ncc1O)c1ccc(Cl)cc1Cl [Example 1.167], COc1cnc(N2CCN(C(=O)C[C@@H]3CCCN3C)CC2)nc1N[C@H](C)c1ccc(Cl)cc1Cl [Example 1.168], C[C@@H](Nc1nc(N2CCN(C(=O)C[C@@H]3CCCN3C)CC2)ncc1Cl)c1ccc(Cl)cc1Cl [Example 1.169], COc1cnc(N2CCC(N(C)C(=O)[C@H]3CCCN3)CC2)nc1N[C@H](C)c1ccc(Cl)cc1Cl [Example 1.170], C[C@@H](Nc1nc(N2CCN(C(=O)[C@H]3CCC(=O)N3)CC2)ncc1OC(F)F)c1ccc(Cl)cc1Cl [Example 1.171], C[C@@H](Nc1nc(N2CCN(C(=O)[C@H]3CCCN3)CC2)ncc1OC(F)F)c1ccc(Cl)cc1Cl [Example 1.172], COc1cnc(N2CCN(C(=O)[C@H]3CC[C@@H](C)N3)CC2)nc1N[C@H](C)c1ccc(Cl)cc1Cl [Example 1.173], CC(C)Oc1cnc(N2CCN(C(=O)[C@H]3CCCN3)CC2)nc1N[C@H](C)c1ccc(Cl)cc1Cl [Example 1.174], COc1nc(N2CCN(C(=O)[C@H]3CCCN3)CC2)nc(N[C@H](C)c2ccc(Cl)cc2Cl)c1Cl [Example 1.175], COc1cnc(N2CCC(NC(=O)[C@H]3CCCN3)CC2)nc1N[C@H](C)c1ccc(Cl)cc1Cl [Example 1.176], COc1cnc(N2CCN(C(=O)C[C@@H]3CCCN3)CC2)nc1N[C@H](C)c1ccc(Cl)cc1Cl [Example 1.177], C[C@@H](Nc1nc(N2CCC(O[C@H]3CCN(C)C3)CC2)ncc1Cl)c1ccc(Cl)cc1Cl [Example 1.178], COc1cnc(N2CC[C@H](NC(=O)[C@H]3CCCN3)[C@@H](O)C2)nc1N[C@H](C)c1ccc(Cl)cc1Cl [Example 1.179], C[C@@H](Nc1nc(N2CCN(C(=O)C[C@@H]3CCCN3)CC2)ncc1Cl)c1ccc(Cl)cc1Cl [Example 1.180], CCOc1cnc(N2CCN(C(=O)[C@H]3CCCN3)CC2)nc1N[C@H](C)c1ccc(Cl)cc1Cl [Example 1.181], CCOc1cnc(N2CCN(C(=O)[C@H]3CCC(=O)N3)CC2)nc1N[C@H](C)c1ccc(Cl)cc1Cl [Example 1.182], CCOc1cnc(N2CCN(C(=O)CCN(C)C)CC2)nc1N[C@H](C)c1ccc(Cl)cc1Cl [Example 1.183], CCOc1cnc(N2CCN(C(=O)[C@H]3CCN(C)C3)CC2)nc1N[C@H](C)c1ccc(Cl)cc1Cl [Example 1.184], C[C@@H](Nc1nc(N2CCN(C(=O)CCN3CCCC3)CC2)ncc1Cl)c1ccc(Cl)cc1Cl [Example 1.185], C[C@@H](Nc1nc(N2CCC(O[C@@H]3CNC[C@H]3F)CC2)ncc1Cl)c1ccc(Cl)cc1Cl [Example 1.186], COc1cnc(N2CCN(C(=O)CCN(C)C)CC2)nc1N[C@H](C)c1ccc(Cl)cc1Cl [Example 1.187], COc1cnc(N2CCN(C(=O)[C@H]3CCC(=O)N3)CC2)nc1N[C@H](C)c1ccc(Cl)cc1Cl [Example 1.188], COc1cnc(N2CCN(C(=O)[C@H]3CCN(C)C3)CC2)nc1N[C@H](C)c1ccc(Cl)cc1Cl [Example 1.189], C[C@@H](Nc1nc(N2CCC(O[C@@H]3CNC[C@@H]3F)CC2)ncc1Cl)c1ccc(Cl)cc1Cl [Example 1.190], C[C@@H](Nc1nc(N2CCN(C(=O)CN3CCCC3)CC2)ncc1Cl)c1ccc(Cl)cc1Cl [Example 1.192], C[C@@H](Nc1nc(N2CCC(O[C@H]3CCN(CCO)C3)CC2)ncc1Cl)c1ccc(Cl)cc1Cl [Example 1.193], COc1cnc(N2CCN(C(=O)[C@H]3CCCN3)CC2)nc1N[C@H](C)c1ccc(Cl)cc1Cl [Example 1.197], C[C@@H](Nc1nc(N2CCN(C(=O)[C@H]3CCC(=O)N3)CC2)ncc1Cl)c1c(F)cc(Cl)cc1Cl [Example 1.198], C[C@@H](Nc1nc(N2CCN(C(=O)[C@H]3CCCNC3)CC2)ncc1Cl)c1ccc(Cl)cc1Cl [Example 1.201], C[C@@H](Nc1nc(N2CCN(C(=O)[C@H]3CCC(=O)N3)CC2)ncc1Cl)c1cc(F)c(Cl)cc1Cl [Example 1.202], C[C@H]1CC[C@H](C(=O)N2CCN(c3ncc(Cl)c(N[C@H](C)c4ccc(Cl)cc4Cl)n3)CC2)N1 [Example 1.204], C[C@@H](Nc1nc(N2CC[C@H](NC(=O)[C@H]3CCN(C)C3)[C@@H](O)C2)ncc1Cl)c1ccc(Cl)cc1Cl [Example 1.206]

Serum IC50 (FBS), + ++:
COc1cnc(N2CCN(C(=O)[C@H]3CCNC3)CC2)nc1N[C@H](C)c1ccc(Cl)cc1Cl [Example 1.163]
